According to US20120053053A1, “PYRIMIDINE DERIVATIVES AND THEIR USE AS HERBICIDES” (SYNGENTA CROP PROTECTION, LLC, priority 2009, published 2012):

Legend:
Format in all cases: in vivo
[1] = test system: Ipomea hederaceae (IPOHE); assay: Pre-emergence biological efficacy (percentage damage); conditions: Ipomoea hederacea, 312 h, dose 1,000 g/ha, evaluated after 13 days, 100=total damage, 0=no damage
Summary of the method: (§1)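 Sow seeds in pots of standard soil; hold 1 day in glasshouse (24/16 °C, 14 h light, 65% humidity). Spray aqueous solution from acetone/water (50:50) with 0.5% Tween 20 at 250 or 1000 g/ha. Grow on, watering twice daily; rate damage at 13 days.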

[2] = test system: Alopecurus myosuroides (ALOMY); assay: as above; conditions: Alopecurus myosuroides, 312 h, dose 1,000 g/ha, evaluated after 13 days, 100=total damage, 0=no damage
Summary of the method: as §1

Solanum nigrum (SOLNI) [3] = assay: as above; conditions: Solanum nigrum, 312 h, dose 1,000 g/ha, evaluated after 13 days, 100=total damage, 0=no damage
Summary of the method: as §1

[4] = test system: Echinochloa crus-galli (ECHCG); assay: as above; conditions: Echinochloa crus-galli, 312 h, dose 1,000 g/ha, evaluated after 13 days, 100=total damage, 0=no damage
Summary of the method: as §1

[5] = test system: Amaranthus retoflexus (AMARE); assay: as above; conditions: Amaranthus retroflexus, 312 h, dose 1,000 g/ha, evaluated after 13 days, 100=total damage, 0=no damage
Summary of the method: as §1

Setaria faberi (SETFA) [6] = assay: as above; conditions: Setaria faberi, 312 h, dose 1,000 g/ha, evaluated after 13 days, 100=total damage, 0=no damage
Summary of the method: as §1

[7] = test system: Ipomea hederaceae (IPOHE); assay: Post-emergence biological efficacy (percentage damage); conditions: Ipomoea hederacea, 312 h, dose 1,000 g/ha, evaluated after 13 days, 100=total damage, 0=no damage
Summary of the method: (§2)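 Applied rates: 250 or 1000 g/ha, sprayed from acetone/water (50:50) with 0.5% Tween 20 onto plants 8 days after sowing. Visual damage rating 13 days later on a 0–100 scale.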

[8] = test system: Alopecurus myosuroides (ALOMY); assay: as above; conditions: Alopecurus myosuroides, 312 h, dose 1,000 g/ha, evaluated after 13 days, 100=total damage, 0=no damage
Summary of the method: as §2

Solanum nigrum (SOLNI) [9] = assay: as above; conditions: Solanum nigrum, 312 h, dose 1,000 g/ha, evaluated after 13 days, 100=total damage, 0=no damage
Summary of the method: as §2

[10] = test system: Echinochloa crus-galli (ECHCG); assay: as above; conditions: Echinochloa crus-galli, 312 h, dose 1,000 g/ha, evaluated after 13 days, 100=total damage, 0=no damage
Summary of the method: as §2

[11] = test system: Amaranthus retoflexus (AMARE); assay: as above; conditions: Amaranthus retroflexus, 312 h, dose 1,000 g/ha, evaluated after 13 days, 100=total damage, 0=no damage
Summary of the method: as §2

Setaria faberi (SETFA) [12] = assay: as above; conditions: Setaria faberi, 312 h, dose 1,000 g/ha, evaluated after 13 days, 100=total damage, 0=no damage
Summary of the method: as §2

Row | SMILES | pest or weed control at 1000 g/ha [1] [%] | pest or weed control at 1000 g/ha [2] [%] | pest or weed control at 1000 g/ha (Solanum nigrum (SOLNI) [3]) [%] | pest or weed control at 1000 g/ha [4] [%] | pest or weed control at 1000 g/ha [5] [%] | pest or weed control at 1000 g/ha (Setaria faberi (SETFA) [6]) [%] | pest or weed control at 1000 g/ha [7] [%] | pest or weed control at 1000 g/ha [8] [%] | pest or weed control at 1000 g/ha (Solanum nigrum (SOLNI) [9]) [%] | pest or weed control at 1000 g/ha [10] [%] | pest or weed control at 1000 g/ha [11] [%] | pest or weed control at 1000 g/ha (Setaria faberi (SETFA) [12]) [%]
1 | C=Cc1c(N)nc(-c2ccc3c(c2)OCCO3)nc1C(=O)OC [Compound 71-61, 4-Amino-5-ethenyl-2-(3,4-ethylenedioxy-phenyl)-6-methoxycarbonyl-pyrimidine] | 0 | 10 | 40 | 20 | 0 | 0 | 40 | 0 | 60 | 30 | 20 | 0
2 | C=Cc1c(N)nc(SC)nc1OCC(=O)OC [Compound 2-366, 4-amino-5-ethenyl-6-methoxycarbonylmethoxy-2-methylthio-pyrimidine] | 0 | 0 | 0 | 0 | 0 | 0 | 0 | 0 | 20 | 0 | 0 | 0
3 | C=Cc1c(N)nc(-c2ccc(F)c(Cl)c2)nc1C(=O)OC [Compound 44-61, 4-Amino-2-(3-chloro-4-fluorophenyl)-5-ethenyl-6-methoxycarbonyl-pyrimidine] | 10 | 20 | 40 | 40 | 50 | 30 | 30 | 40 | 90 | 50 | 100 | 60
4 | C=Cc1c(N)nc(-c2ccc(Cl)c(N(C)C)c2F)nc1C(=O)O [Compound 33-21, 4-Amino-2-(4-chloro-3-dimethylamino-2-fluorophenyl)-5-ethenylpyrimidine-6-carboxylic acid] | 80 | 90 | 100 | 100 | 100 | 100 | 70 | 90 | 90 | 100 | 100 | 100
5 | C=Cc1c(N)nc(-c2ccc(Cl)c(N(C)C)c2F)nc1C(=O)OCc1ccccc1 [Compound 33-336, 4-Amino-2-(4-chloro-3-dimethylamino-2-fluorophenyl)-5-ethenyl-6-phenylmethoxy-carbonyl-pyrimidine] | 20 | 70 | 80 | 90 | 100 | 80 | 40 | 90 | 90 | 90 | 100 | 90
6 | C=Cc1c(N)nc(-c2ccc3c(c2)OCO3)nc1C(=O)OC [Compound 70-61, 4-Amino-5-ethenyl-6-methoxycarbonyl-2-(3,4-methylenedioxy-phenyl)-pyrimidine] | 80 | 80 | 100 | 90 | 100 | 70 | 80 | 100 | 90 | 100 | 100 | 40
7 | C=C(C)c1c(N)nc(C2CC2)nc1C(=O)OC [Compound 2-64, 4-Amino-2-cyclopropyl-6-methoxycarbonyl-5-(prop-1-en-2-yl)-pyrimidine] | 100 | 20 | 80 | 0 | 100 | 20 | 70 | 10 | 80 | 40 | 60 | 30
